The text below walks through data of patent US20170114070A1, “INHIBITORS OF THE WNT SIGNALLING PATHWAYS” (Bayer Pharma Aktiengesellschaft, priority 2014, published 2017).

For test [1], the system named is HCT116 FOPFlash (FOP control vector, non-functional TCF elements). The test is described as follows: Cellular control reporter assay, HCT116 FOP control vector. To be noted: Homo sapiens, HCT-116; HCT116 stably transfected with FOP control vector; 36 hours incubation; luciferase expression; dilution series from 50 μM. It is filed as cell-based. A digest of the protocol:
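Stable HCT116 cells carrying FOP vector (randomized non-functional TCF sites) plus pcDNA3, run in parallel with TOP line; compounds 50 μM to 15 nM (3.16-fold steps) added in CAFTY buffer pH 7.4 with 2 mM Ca2+, 0.01% BSA. Incubated 36 h at 37 °C, 5% CO2; luciferase luminescence read.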

Test [2] deals with constitutive active Wnt pathway (HCT116 TOPFlash). The test is described as follows: Cellular reporter assay, HCT116 Super TopFlash (constitutive active Wnt pathway). It is filed as cell-based. To be noted: Homo sapiens, HCT-116; HCT116 stably transfected with Super TopFlash vector; 36 hours incubation; luciferase expression.

Bounds are passed on as bounds.

As to `Cc1cccc(F)c1-c1cnc(NC(=O)c2ccc(OC(F)(F)F)c(NC(=O)CN3CCOCC3)c2)cn1` [Example 58, N-[5-(2-fluoro-6-methylphenyl)pyrazin-2-yl]-3-[(morpholin-4-ylacetyl)amino]-4-(trifluoromethoxy)benzamide], the 50% inhibitory concentration (IC50) in test [1] is at least 50 µM; in test [2], 2.9 µM.

As to `CN1CCN(CC(=O)Nc2cc(C(=O)Nc3cnc(-c4cccc(F)c4)cn3)ccc2OC(F)(F)F)CC1` [Example 59, N-[5-(3-fluorophenyl)pyrazin-2-yl]-3-{[(4-methylpiperazin-1-yl)acetyl]amino}-4-(trifluoromethoxy)benzamide], the 50% inhibitory concentration (IC50) in test [1] was at least 50 µM; in test [2], 3 µM.

In the case of `CN1CCN(CC(=O)Nc2cc(C(=O)Nc3cnc(-c4cnc(N)cn4)cn3)ccc2OC(F)(F)F)CC1` [Example 60, N-(5′-amino-2,2′-bipyrazin-5-yl)-3-{[(4-methylpiperazin-1-yl)acetyl]amino}-4-(trifluoromethoxy)benzamide], the IC50 in test [1] was at least 50 µM; in test [2], 4.1 µM.

Take `O=C(CN1CCOCC1)Nc1cc(C(=O)Nc2cnc(-c3ccccn3)cn2)ccc1OC(F)(F)F` [Example 61, 3-[(morpholin-4-ylacetyl)amino]-N-[5-(pyridin-2-yl)pyrazin-2-yl]-4-(trifluoromethoxy)benzamide]: the IC50 in test [1] and in test [2] was at least 50 µM each time.

On to `N=S1(=O)CCN(CC(=O)Nc2cc(C(=O)Nc3ccc(-c4ccccc4)nn3)ccc2OC(F)(F)F)CC1` [Example 62], for which the values for the IC50 in test [1] and in test [2] were 25.5 µM and 12.5 µM, respectively.

In the case of `O=C(CN1CCOCC1)Nc1cc(C(=O)Nc2cnc(-c3cccc(F)c3)cn2)ccc1OC(F)(F)F` [Example 63, N-[5-(3-fluorophenyl)pyrazin-2-yl]-3-[(morpholin-4-ylacetyl)amino]-4-(trifluoromethoxy)benzamide], the half-inhibitory concentration (IC50) in test [1] is at least 50 µM; in test [2] it was 16 µM.
